Measurements from US11912723B2, “KRAS modulators and uses thereof” (Quanta Therapeutics, Inc., priority 2022, dated 2024).

Key:
KRAS G12V/RAF1 = molecular target: T1, KRAS G12V/RAF1 (Homo sapiens, UniProt P01116, G12V); experiment: Protein-protein interaction (PPI) HTRF assay KRAS G12V/RAF1; assay type: binding; conditions: KRASG12V/RAF1
T1 construct: KRAS (1-169) proteins were expressed in E. coli at 18° C; His6-MBP (N, cleaved yes); made in house; host or cells: E. coli
Method: (§1) Biotinylated KRAS wt and KRAS G12DNV proteins were expressed and purified in conditions similar to those previously reported (Tran, et al., 2021) (Zhang, et al., 2020). Briefly, KRAS (1-169) proteins were expressed in E. coli at 18° C. with an upstream TEV cleavage site (ENLFYQS) followed an Avi tag sequence ([…]). KIRAS expression constructs contained both a His6 and maltose-binding protein (MBP) tags at the N-terminus for Ni-NTA column purification prior to overnight TEV cleavage and MBP column purification. The avi-tagged NRAS expression construct contained both a His6 tag and SUMO cleavage sige at the N-terminus for Ni-NTA column purification followed by His-ULP1 digestion overnight. All avi-tagged RAS proteins were dialyzed into buffer containing ATP, biotin, and BirA followed by purification over a second Ni-NTA column and then run over a size exclusion HiLoad™ 26/600 Superdex™ column in 20 mM HEPES, pH 7.5, 300 mM NaCl, 5 mM MgCl2, and 1 mM TCEP. Fractions containing the protein of interest were pooled, concentrated, and confirmed by intact mass spectrometry. To prepare ‘GTP’ loaded KRAS and NRAS, biotinylated KRAS or NRAS was nucleotide exchanged from GDP-bound protein to GppNHp-bound (Jena Biosciences, NU-401-50) protein in the presence of alkaline phosphatase and excess GppNHp as previously described and the resulting nucleotide content was confirmed by HPLC reverse phase analytical chromatography (Donohue, et al., 2019) (Tran, et al., 2021).
(§2) His-tagged RAF1 (52-131) was similarly expressed in E. coli at 18° C. overnight with an upstream TEV cleavage site. His-tagged RAF1 expression construct contained both a His6 and MBP tags at the N-terminus for Ni-NTA column purification followed by MBP-tagged TEV digestion overnight. RAF1 protein samples were further purified over a MBP column followed by a Ni-NTA column and a second MBP column. The fractions containing the protein of interest were pooled, concentrated, and further purified over a HiLoad™ 16/600 Superdex™ 75 pg size exclusion column into 20 mM HEPES, pH8.0, 200 mM NaCl, 5 mM TCEP.
(§3) When RAS proteins are in the active GTP-bound conformation, they bind the effector protein RAF1 at the N-terminus Ras-binding domain (RBD, residues 52-131) (Tran, et al., 2021). Homogenous time resolved fluorescence (HTRF) was used to monitor the interaction between wt or mutant KRAS and RAF1 or wt NRAS and RAFT. Compounds were assayed in the presence of KRAS G12D/V and RAF1 versus wt KRAS to assess activity against mutant and w.t. KRAS. Similarly, compounds were then assayed in the presence of w.t. NRAS and RAF1 to assess RAS isoform selectivity. In all assay formats, His-tagged RAF1 protein was incubated with the HTRF donor, anti-6His Tb Cryptate gold (Cisbio 61DB10RDF), and biotinylated RAS proteins were incubated with the HTRF acceptor, streptavidin-d2 (CisBio 610SADLA). The intensity of the fluorescence signal emitted is proportional to binding between the two proteins. The donor solution was prepared by mixing 16 nM His-tagged RAF1 in protein dilution buffer with 1:100 anti-6His Tb cryptate in PPI-Terbium detection buffer. 16 nM biotinylated RAS protein was diluted into protein dilution buffer (50 mM Tris-HCl pH 7.5, 150 mM NaCl, 0.1 mM MgCl2, 1 mM TCEP, 0.005% Tween20) and mixed with 1:2000 Streptavidin-d2 diluted in PPI-Terbium detection buffer (CisBio 61DB10RDF). 50× compound in DMSO was mixed with 16 nM KRAS-acceptor solution and incubated for 30 minutes at room temperature. After compound pre-incubation with KRAS, the RAF1 donor solution was added to the KRAS-acceptor solution and incubated for 1 hour at room temperature. The fluorescence signal emitted was monitored at 665 nm and 615 nm using an Envision multimode plate reader. The HTRF ratio (665/615) was calculated and normalized to 0% inhibition in the absence of compound and 100% inhibition in the presence of untagged RAF1 protein. […]

KRAS G12D/RAF1 = molecular target: T2, KRAS G12D/RAF1 (Homo sapiens, UniProt P01116, G12D); experiment: Protein-protein interaction (PPI) HTRF assay KRAS G12D/RAF1; assay type: binding; conditions: KRAS G12D/RAF1, GppNHp-loaded KRAS; 30 minutes pre-incubation
T2 construct: KRAS (1-169) proteins were expressed in E. coli at 18° C; His6-MBP (N, cleaved yes); made in house; host or cells: E. coli
T2 sequence (P01116 1-169 isoform P01116-2 G12D): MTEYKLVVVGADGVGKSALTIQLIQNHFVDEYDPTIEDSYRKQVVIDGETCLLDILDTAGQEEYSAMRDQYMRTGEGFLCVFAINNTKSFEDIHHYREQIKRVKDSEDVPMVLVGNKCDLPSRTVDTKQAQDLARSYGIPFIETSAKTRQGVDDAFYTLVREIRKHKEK
How it was run: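 Biotinylated GppNHp-loaded RAS (1-169) on streptavidin-d2 acceptor and His-RAF1 RBD (52-131) on anti-His Tb donor, each prepared at 16 nM in pH 7.5 Tris buffer. Compound preincubated with RAS 30 min, then RAF1 added for 1 h at room temperature. IC50 from HTRF 665/615 ratio, normalized to no compound (0%) and untagged RAF1 (100%).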

[1] = molecular target: T3, GST-tagged KRAS G12D (2-169) (Homo sapiens, UniProt P01116, G12D); experiment: Nucleotide exchange assay (NEA), HTRF of SOS-mediated GTP-DY-647P1 binding; assay type: biochemical; conditions: 5 nM GST-KRAS G12D, 20 nM SOScat, 150 nM GTP; compound 1 h at RT
T3 construct: GST-tagged KRAS^G12D (2-169, Reaction Biology, MSC-11-539); purchased Reaction Biology MSC-11-539 (KRAS G12D); MSC-11-502 (SOS1cat)
T3 sequence (P01116 2-169 isoform P01116-2 G12D): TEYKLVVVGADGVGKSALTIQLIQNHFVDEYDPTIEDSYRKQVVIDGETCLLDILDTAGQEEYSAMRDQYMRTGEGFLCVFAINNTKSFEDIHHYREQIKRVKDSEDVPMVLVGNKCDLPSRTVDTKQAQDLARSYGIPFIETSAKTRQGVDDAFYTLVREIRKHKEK
How it was run: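 SOS1cat (564-1049)-driven loading of GTP-DY-647P1 onto KRAS G12D, read by HTRF with anti-GST Tb cryptate donor; compound preincubated with KRAS 1 h at RT. Final 5 nM KRAS, 20 nM SOScat, 150 nM GTP, pH 7.3 HEPES buffer; read up to 90 min at RT. Blanked to no-SOS1; 4-parameter fit of % inhibition.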

wtNRAS/RAF1 = molecular target: T4, wtNRAS/RAF1 (Homo sapiens, UniProt P01111); experiment: Protein-protein interaction (PPI) HTRF assay w.t.NRAS/RAF1; assay type: binding
T4 construct: (1-169); His6-SUMO (N, cleaved yes); made in house; host or cells: E. coli (printed for the KRAS and RAF1 constructs; not explicitly for NRAS)
T4 sequence (P01111 1-169): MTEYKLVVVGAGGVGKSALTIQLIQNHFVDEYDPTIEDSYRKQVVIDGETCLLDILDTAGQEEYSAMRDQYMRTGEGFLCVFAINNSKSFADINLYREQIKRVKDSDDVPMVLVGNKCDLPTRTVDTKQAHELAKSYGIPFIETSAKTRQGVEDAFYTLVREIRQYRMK
Method: as §1, §2, §3

wtKRAS/RAF1 = molecular target: T5, wtKRAS/RAF1 (Homo sapiens, UniProt P01116); experiment: Protein-protein interaction (PPI) HTRF assay w.t.KRAS/RAF1; assay type: binding
T5 construct: KRAS (1-169) proteins were expressed in E. coli at 18° C; His6-MBP (N, cleaved yes); made in house; host or cells: E. coli
T5 sequence (P01116 1-169 isoform P01116-2): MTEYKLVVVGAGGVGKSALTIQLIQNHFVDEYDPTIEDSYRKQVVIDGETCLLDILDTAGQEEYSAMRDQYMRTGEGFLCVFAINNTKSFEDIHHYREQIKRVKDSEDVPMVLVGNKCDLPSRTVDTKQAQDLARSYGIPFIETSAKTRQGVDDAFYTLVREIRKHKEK
Method: as §1, §2, §3

[2] = system: AGS (KRAS G12D) cells, phospho-ERK; experiment: pERK In Cell Western (ICW) assay (Method B); assay type: cell-based; conditions: Homo sapiens, 3 hours
Method: pERK ICW is a high throughput screening assay to evaluate the cellular potency of mutant KRAS small molecule inhibitors. KRAS mutant cell line AGS (KRAS^G12D) were purchased from ATCC and maintained in DMEM and RPMI medium supplemented with 10% fetal bovine serum and Penicillin/Streptomycin.
Cells grown in exponential phase were trypsinized, resuspended in fresh media, and viable cells were counted using a cell counter with Trypan Blue (BioRad TC20). Cells were seeded into 384-well plate (Greiner 781091) at density of 5,000 cells/well for AGS and allowed to grow overnight in a 37° C. CO2 incubator. The next day, compounds were dispensed into wells with a ½ log, 10-point serial dilution and top concentration of 10 μM using Tecan D300e dispenser and incubated for 3 hours in a 37° C. CO2 incubator. Cells were then fixed with paraformaldehyde (Electron Microscopy Sciences, 15710, 4% final concentration) for 30 min, permeabilized with wash buffer (1×PBS+0.1% Triton X-100) for 30 min and blocked with Odyssey blocking buffer (Li—COR 927-70001) for 1 hour, all at room temperature (RT). Phospho-ERK antibody (CST 4370L) was diluted 1:500 in Odyssey blocking+0.2% Tween 20 and incubated with cells overnight at 4° C. The next day, plates were washed 5× with wash buffer, incubated with IRDye 800 CW, Goat anti-Rabbit secondary antibody (Li—COR 926-32211, 1:500) and DRAQ5 (CST 4084L, 1:5,000) diluted in Odyssey blocking+0.2% Tween 20 for 1 hour, washed 5×, and imaged on an Odyssey CLx imaging system.
For data analysis, signal intensities from 800 (phosphor-ERK) and 700 (DRAQ5) channels were extracted, and phospho-ERK signals were normalized to DRAQ5 signals for each well and percent of DMSO control values were computed. Data were then imported into Graphpad Prism to compute half-maximal inhibitory concentrations (IC50) using a 4-parameter variable slope model. Z-factor for each plate was computed from signals derived from wells treated with either DMSO or 5 μM of Trametinib. AGS pERK ICW (Method B) IC50 (uM) values of selected compounds are depicted in Table 2 with compounds having a value 0.001 uM to 0.01 uM as ++++; >0.01 uM to 0.1 uM as +++; >0.1 uM to 1 uM as ++; 1 uM to 10 uM as + and >10 uM as NA.

T1 sequence (P01116 1-169 isoform P01116-2 G12V): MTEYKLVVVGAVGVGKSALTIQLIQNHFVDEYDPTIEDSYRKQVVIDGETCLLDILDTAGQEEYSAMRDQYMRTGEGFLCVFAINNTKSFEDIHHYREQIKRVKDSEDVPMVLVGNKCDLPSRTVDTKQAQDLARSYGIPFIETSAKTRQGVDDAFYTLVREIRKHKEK

| Compound | IC50 (KRAS G12V/RAF1) [µM] | IC50 (KRAS G12D/RAF1) [µM] | IC50 [1] [µM] | IC50 (wtNRAS/RAF1) [µM] | IC50 (wtKRAS/RAF1) [µM] | IC50 [2] [µM] |
| --- | --- | --- | --- | --- | --- | --- |
| O=C1NC(=O)C2(CCCN(c3nc(OC[C@@]45CCCN4C[C@H](F)C5)nc4c3COC3(CCc5c(Cl)cccc53)C4)C2)N1 (stereo partly drawn) [Compound 24, 9-[4′-chloro-2-[[(2R,8S)-2-fluoro-1,2,3,5,6,7-hexahydropyrrolizin-8-yl]methoxy]spiro[5,8-dihydropyrano[4,3-d]pyrimidine-7,1′-indane]-4-yl]-1,3,9-triazaspiro[4.5]decane-2,4-dione] | 10 to 100 | 10 to 100 | 0.1 to 1 | > 100 | 10 to 100 |  |
| CN(C)C(=O)c1cc2n(n1)CCCN(c1nc(OC[C@@]34CCCN3C[C@H](F)C4)nc3c1COC1(CCc4c(OC(F)F)cccc41)C3)C2 (mixture of isomers) [Compound 48, 5-[4′-(difluoromethoxy)-2-[[rac-(2R,8S)-2-fluoro-1,2,3,5,6,7-hexahydropyrrolizin-8-yl]methoxy]spiro[5,8-dihydropyrano[4,3-d]pyrimidine-7,1′-indane]-4-yl]-N,N-dimethyl-4,6,7,8-tetrahydropyrazolo[1,5-a][1,4]diazepine-2-carboxamide] |  |  | 1 to 20 |  |  | > 10 |
| C[C@@]1(O)CCCN(c2nc(OC[C@@]34CCCN3C[C@H](F)C4)nc3c2COC2(CCc4c(Cl)cccc42)C3)C1 (stereo partly drawn) [Compound 23, (3R)-1-(4-chloro-2′-(((2R,7aS)-2-fluorotetrahydro-1H-pyrrolizin-7a(5H)-yl)methoxy)-2,3,5′,8′-tetrahydrospiro[indene-1,7′-pyrano[4,3-d]pyrimidin]-4′-yl)-3-methylpiperidin-3-ol] | 10 to 100 | 10 to 100 | 1 to 20 | > 100 | > 100 |  |
| CN1Cc2c(nc(OC[C@@]34CCCN3C[C@H](F)C4)nc2N2CCC[C@]3(C2)NC(=O)NC3=O)C[C@]12CCc1cccc(Cl)c12 [Compound 70, (5R)-9-[(7S)-7′-chloro-2-[[(2R,8S)-2-fluoro-1,2,3,5,6,7-hexahydropyrrolizin-8-yl]methoxy]-6-methyl-spiro[5,8-dihydropyrido[4,3-d]pyrimidine-7,1′-indane]-4-yl]-1,3,9-triazaspiro[4.5]decane-2,4-dione] |  |  | 0.01 to 0.1 |  |  | 1 to 10 |
